The target in assay [1] is MAT2A recombinant protein (Homo sapiens, UniProt P31153). The experiment in a line: MAT2A inhibitory activity (malachite green colorimetric enzyme assay). Format: biochemical. The source says:
MAT2A catalyzes the reaction of L-methionine and ATP to generate S-adenosylmethionine (SAM), inorganic phosphonic acid, and inorganic diphosphonic acid. Malachite green reacts with inorganic phosphonic acid to generate a green product, and the enzyme activity of MAT2A can be indirectly reflected by detecting the content of the inorganic phosphonic acid in a sample.
The test compounds were formulated using DMSO and diluted 1:3 diluted through 10 concentration points to give a final starting concentration in the reaction system of 1000 nM. The test compounds at different concentrations described above were transferred to a 384-well plate. Experimental buffer (50 mM HEPES pH 7.5, 50 mM KCl, 10 mM MgCl2, 10 mM DTT) was prepared. 2×MAT2A recombinant protein was prepared using the buffer and added to a 384-well plate. A mixed solution of 2×L-methionine and ATP was prepared using the buffer, and added to a 384-well plate. The enzymatic reaction was started, and the reaction was carried out at room temperature for 60 min. 20 μL of a colorimetric detection reagent was added to the above system, and incubated at room temperature for 15 min. The absorbance at 630 nm was measured. The inhibition rate of the compound on the enzyme activity was calculated, and the inhibition rate value and the logarithm value of the compound concentration were fitted using non-linear regression (dose response-variable slope) to give the IC50 value of the test compound.

Assay [2] has as its system SDMA in HCT116-MTAP-knockout cell line. The assay can be described thus: Cell symmetric dimethylarginine (SDMA) test, In-cell Western, HCT116-MTAP-knockout. In kind it is cell-based. Particulars: Homo sapiens, 96 h.
The test system of assay [3] is SDMA in human colon cancer cell line HCT116. The assay can be described thus: Cell symmetric dimethylarginine (SDMA) test, In-cell Western, HCT116 (MTAP wild-type). Format: cell-based. Particulars: Homo sapiens, HCT-116, 96 h. The source says: MAT2A catalyzes the reaction of L-methionine and ATP to generate SAM, inorganic phosphonic acid, and inorganic diphosphonic acid. SAM is an important methyl donor, and is a substrate of arginine methyltransferase 5 (PRMT5). PRMT5 catalyzes SDMA modification of multiple proteins within a cell. The intracellular SDMA modification level was detected by ICW (In-cell Western), and the inhibition of the test compound on the enzymatic activity of intracellular MAT2A was indirectly reflected.
In the present application, the human colon cancer cell line HCT116 and the corresponding HCT116-MTAP-knockout cell line were seeded into a 96-well cell culture plate at an appropriate cell density. After 24 h, the cells were treated using the test compounds diluted 1:4 fold at the highest concentration of 6 μM for 6 gradients, and a DMSO treatment group was set up separately. The cells were cultured in a 37° C./5% CO2 incubator for 4 days. To test the inhibitory activity of the test compounds against tumor cell SDMA, the medium was discarded, and the plate was washed 3 times with PBST. 4% paraformaldehyde was then used at room temperature for fixation for 20 min. The fixation solution was discarded, the plate was washed 3 times with PBST, and a special blocking solution was added to each well for blocking at room temperature for 2 h. The blocking solution was discarded. After the plate was washed 3 times with PBST, the plate was incubated with SDMA antibody at 4° C. overnight. The next day, the plate was washed 3 times with PBST. The secondary antibody and DRAQ5 were diluted to an appropriate concentration with the blocking solution, and incubated at room temperature for 2 h; the plate was washed 3 times with PBST, and the fluorescence signals at 700 nm and 800 nm were detected using a Li—COR Odyssey two-color near-infrared laser imager.
The data was then processed. After the corresponding background value was subtracted from each well, statistical analysis was performed on the 800 nm/700 nm ratio for each well, a sigmoidal dose-inhibition curve was plotted using a non-linear regression model, and IC50 values were fitted and calculated. Inhibition Rate (%)=(1−SDMA dose/SDMA DMSO control)*100. SDMA dose is the value of the drug treatment group, and SDMA DMSO control is the value of the DMSO control group.

Setting [4] is: IC50 score class, read-out: MAT2A Inhibition (score).
Setting [5] is: IC50 score class, read-out: Cell 96 h SDMA Inhibition (HCT116-MTAP−/−) (score).
Where [6] appears, read: read-out: Cell 96 h SDMA Inhibition (HCT116-MTAP−/−).
The mark [7] stands for this setting: IC50 score class, read-out: Cell 96 h SDMA Inhibition (HCT116-MTAP+/+) (score).
Setting [8] is: read-out: Cell 96 h SDMA inhibition (HCT116-MTAP+/+).

pIC50: −log10 of the molar value. Read-outs that look alike come from different tables or passages of the source.

Chain of MAT2A recombinant protein (P31153 whole entry): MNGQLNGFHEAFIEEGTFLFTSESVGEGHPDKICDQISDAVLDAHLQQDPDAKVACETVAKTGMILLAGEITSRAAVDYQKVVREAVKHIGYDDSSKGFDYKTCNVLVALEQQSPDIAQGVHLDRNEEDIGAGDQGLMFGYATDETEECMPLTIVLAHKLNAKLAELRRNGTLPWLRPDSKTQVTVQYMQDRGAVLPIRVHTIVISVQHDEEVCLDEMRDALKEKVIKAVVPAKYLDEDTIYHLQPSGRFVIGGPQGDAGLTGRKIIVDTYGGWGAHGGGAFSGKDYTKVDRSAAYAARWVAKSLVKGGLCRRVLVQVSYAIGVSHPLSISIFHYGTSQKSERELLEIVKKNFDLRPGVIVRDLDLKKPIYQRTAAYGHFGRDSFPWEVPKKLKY

Consider `Cn1cc2c(n1)c(=O)n(-c1cccnc1)c1cc(Cl)cc(F)c21` [Compound B172], for which the pIC50 in assay [1] (setting [4]) is over 7.00; in assay [1] (read-out: MAT2A Inhibition), 7.17; in assay [2] (setting [5]), 6.00 to 6.70; in assay [2] (setting [6]), 6.11; in assay [3] (setting [7]) it was 5.52 to 6.00; in assay [3] (setting [8]) it was 5.66.
As for `COc1cc2c3cn(C)nc3c(=O)n(-c3cccnc3)c2cc1Cl` [Compound B171], the pIC50 in assay [1] (setting [4]) is over 7.00; in assay [1] (read-out: MAT2A Inhibition), 7.21; in assay [2] (setting [5]), 6.00 to 6.70; in assay [2] (setting [6]), 6.09; in assay [3] (setting [7]), under 5.52; in assay [3] (setting [8]), under 5.52.
Regarding `O=c1c2nn(C(F)F)cc2c2cc(F)c(Cl)cc2n1-c1cccnc1C(F)(F)F` [Compound B339], the pIC50 was 6.00 to 6.70 in assay [2] (setting [5]), 6.69 in assay [2] (setting [6]), under 5.52 in assay [3] (setting [7]) and under 5.00 in assay [3] (setting [8]).
Take `Cn1cc2c(n1)c(=O)n(-c1cccc3[nH]nc(Cl)c13)c1cc(Cl)c(F)cc21` [Compound B412]: the pIC50 was over 7.00 in assay [1] (setting [4]); 8.19 in assay [1] (read-out: MAT2A Inhibition); over 6.70 in assay [2] (setting [5]); 8.24 in assay [2] (setting [6]); under 5.52 in assay [3] (setting [7]); under 5.00 in assay [3] (setting [8]).
In the case of `Cn1cc2c(n1)c(=O)n(-c1cccnc1)c1cc(Cl)c(F)cc21` [Compound B139], the pIC50 in assay [1] (setting [4]) is over 7.00; in assay [1] (read-out: MAT2A Inhibition), 7.43; in assay [2] (setting [5]) it was 6.00 to 6.70; in assay [2] (setting [6]) it was 6.11; in assay [3] (setting [7]), under 5.52; in assay [3] (setting [8]), 5.17.
For `Cn1cc2c(n1)c(=O)n(-c1cncc(F)c1)c1nc(C(F)(F)F)ccc21` [Compound B202], the pIC50 was over 7.00 in assay [1] (setting [4]); 7.30 in assay [1] (read-out: MAT2A Inhibition); 5.52 to 6.00 in assay [2] (setting [5]); 5.84 in assay [2] (setting [6]); under 5.52 in assay [3] (setting [7]); 4.81 in assay [3] (setting [8]).
On to `O=c1c2nn(C(F)F)cc2c2cc(F)c(Cl)cc2n1-c1cccnc1C1CC1` (single isomer, unassigned) [Compound B399], for which the pIC50 is under 5.52 in assay [3] (setting [7]) and under 5.00 in assay [3] (setting [8]).
On to `Cc1ncccc1-n1c(=O)c2nn(C)cc2c2ccc(C3CC3)nc21` [Compound B75], for which the pIC50 in assay [1] (setting [4]) is over 7.00; in assay [1] (read-out: MAT2A Inhibition), 7.36; in assay [2] (setting [5]) it was over 6.70; in assay [2] (setting [6]), 7.84; in assay [3] (setting [7]), 6.00 to 6.70; in assay [3] (setting [8]), 6.53.
Consider `Cn1cc2c(n1)c(=O)n(-c1cccc3[nH]nc(Br)c13)c1cc(Cl)ccc21` [Compound B332], for which the pIC50 was over 7.00 in assay [1] (setting [4]); 7.41 in assay [1] (read-out: MAT2A Inhibition); over 6.70 in assay [2] (setting [5]); 8.05 in assay [2] (setting [6]); under 5.52 in assay [3] (setting [7]); under 5.00 in assay [3] (setting [8]).
In the case of `Cn1cc2c(n1)c(=O)n(Cc1cn[nH]c1)c1cc(Cl)ccc21` [Compound B235], the pIC50 in assay [1] (setting [4]) is 6.00 to 7.00; in assay [1] (read-out: MAT2A Inhibition), 6.17; in assay [2] (setting [5]) it was under 5.52; in assay [2] (setting [6]) it was 5.37; in assay [3] (setting [7]) it was under 5.52; in assay [3] (setting [8]), under 5.52.
`Cn1cc2c(n1)c(=O)n(-c1cccc3[nH]ncc13)c1nc(C(F)(F)F)c(C#N)cc21` [Compound B281]: the pIC50 in assay [1] (setting [4]) is over 7.00; in assay [1] (read-out: MAT2A Inhibition), 7.52; in assay [2] (setting [5]), over 6.70; in assay [2] (setting [6]), 7.60; in assay [3] (setting [7]), under 5.52; in assay [3] (setting [8]), under 5.00.
For the molecule `Cn1cc2c(n1)c(=O)n(-c1cccc(O)c1)c1cc(Cl)ccc21` [Compound B152], the pIC50 in assay [1] (setting [4]) is over 7.00; in assay [1] (read-out: MAT2A Inhibition) it was 7.14; in assay [2] (setting [5]), 6.00 to 6.70; in assay [2] (setting [6]), 6.64; in assay [3] (setting [7]), under 5.52; in assay [3] (setting [8]), 4.76.
As for `Cn1cc2c(n1)c(=O)n(-c1cccc(C(N)=O)c1)c1nc(C(F)(F)F)ccc21` [Compound B234], the pIC50 was over 7.00 in assay [1] (setting [4]); 7.59 in assay [1] (read-out: MAT2A Inhibition); 5.52 to 6.00 in assay [2] (setting [5]); 5.86 in assay [2] (setting [6]); under 5.52 in assay [3] (setting [7]); under 5.52 in assay [3] (setting [8]).
Regarding `Cn1cc2c(n1)c(=O)n(-c1cccc(C(F)F)c1)c1nc(C(F)(F)F)ccc21` [Compound B194], the pIC50 in assay [1] (setting [4]) was over 7.00; in assay [1] (read-out: MAT2A Inhibition), 7.36.
As for `Cn1cc2c(n1)c(=O)n(-c1cccc3[nH]ncc13)c1cc(C(F)(F)F)c(C#N)cc21` [Compound B391], the pIC50 is over 7.00 in assay [1] (setting [4]); 8.00 in assay [1] (read-out: MAT2A Inhibition); over 6.70 in assay [2] (setting [5]); 7.96 in assay [2] (setting [6]); under 5.52 in assay [3] (setting [7]); under 5.00 in assay [3] (setting [8]).
For `Cn1cc2c(n1)c(=O)n(-c1cccnc1)c1cc(OC(F)(F)F)ccc21` [Compound B78], the pIC50 was 6.00 to 6.70 in assay [2] (setting [5]), 6.09 in assay [2] (setting [6]), 5.52 to 6.00 in assay [3] (setting [7]) and 5.69 in assay [3] (setting [8]).
Regarding `O=c1c2nn(C3CCOCC3)cc2c2ccc(C(F)(F)F)nc2n1-c1cccnc1` [Compound B210], the pIC50 is 6.00 to 7.00 in assay [1] (setting [4]) and 6.22 in assay [1] (read-out: MAT2A Inhibition).
The corresponding values for `Cn1ccc(Cn2ncc3c4ccc(Cl)cc4n(-c4cccnc4)c(=O)c32)n1` [Compound B168] are over 7.00 and 7.00.
Take `Cn1cc2c(n1)c(=O)n(-c1cccc3[nH]nc(F)c13)c1cc(Cl)c(F)cc21` [Compound B411]: the pIC50 is over 7.00 in assay [1] (setting [4]); 8.00 in assay [1] (read-out: MAT2A Inhibition); over 6.70 in assay [2] (setting [5]); 8.28 in assay [2] (setting [6]); under 5.52 in assay [3] (setting [7]); under 5.00 in assay [3] (setting [8]).
For the molecule `Cn1cc2c(n1)c(=O)n(-c1ccc(OC(F)F)cc1)c1cc(Cl)ccc21` [Compound B186], the pIC50 in assay [1] (setting [4]) is 6.00 to 7.00; in assay [1] (read-out: MAT2A Inhibition), 6.72.
As for `Cn1cc2c(n1)c(=O)n(Cc1cn[nH]c1)c1nc(C(F)(F)F)ccc21` [Compound B197], the pIC50 was over 7.00 in assay [1] (setting [4]) and 7.04 in assay [1] (read-out: MAT2A Inhibition).
On to `N#Cc1cc2c3cn(C(F)F)nc3c(=O)n(-c3cccc4[nH]ncc34)c2cc1Cl` [Compound B283], for which the pIC50 in assay [1] (setting [4]) was over 7.00; in assay [1] (read-out: MAT2A Inhibition) it was 7.06.
On the same counts, the results for `Cn1cc2c(n1)c(=O)n([C@@H]1CCCOC1)c1cc(Cl)ccc21` [Compound B230] are 6.00 to 7.00 and 6.63.
Consider `Cn1cc2c(n1)c(=O)n(-c1cccc3[nH]nc(Br)c13)c1cc(Cl)c(F)cc21` [Compound B413], for which the pIC50 was over 7.00 in assay [1] (setting [4]); 8.13 in assay [1] (read-out: MAT2A Inhibition); over 6.70 in assay [2] (setting [5]); 8.04 in assay [2] (setting [6]); under 5.52 in assay [3] (setting [7]); under 5.00 in assay [3] (setting [8]).
For the molecule `Cn1nc2c(=O)n(-c3cccnc3)c3cc(Cl)ccc3c2c1C(F)(F)F` [Compound B26], the pIC50 in assay [1] (setting [4]) is 6.00 to 7.00; in assay [1] (read-out: MAT2A Inhibition) it was 6.46.
The corresponding values for `Cn1cnc2c(=O)n(-c3cccc4cccnc34)c3cc(Cl)c(C#N)cc3c21` [Compound B379] are under 6.00 and under 6.00.
The corresponding values for `Cc1nnc2c(=O)n(-c3cccnc3)c3cc(Cl)ccc3n12` [Compound B23] are 6.00 to 7.00 and 6.04.
On the same counts, the results for `COc1ccc(-n2c(=O)c3nn(C)cc3c3ccc(C(F)(F)F)nc32)cc1` [Compound B187] are 6.00 to 7.00 and 6.55.

The values are drawn from US20240391923A1, “METHIONINE ADENOSYLTRANSFERASE 2A INHIBITOR FOR TREATING MTAP DELETION-TYPE CANCER” (SUZHOU GENHOUSE BIO CO., LTD., priority 2022, published 2024).
